Measured values taken from patent US9248131B2, “Aquaporin modulators and methods of using them for the treatment of edema and fluid imbalance” (THE ARIZONA BOARD OF REGENTS ON BEHALF OF THE UNIVERSITY OF …, priority 2006, dated 2016).

Legend:
[1] = target: T1, Na—K—Cl cotransporter (NKCC1) (Mus musculus, UniProt P55012); settings: read-out: IC50 (half-maximal blocking concentration) against Na—K—Cl cotransporter; mouse kidney collecting duct cell line; cited from earlier work
T1 sequence (P55012 1-1205): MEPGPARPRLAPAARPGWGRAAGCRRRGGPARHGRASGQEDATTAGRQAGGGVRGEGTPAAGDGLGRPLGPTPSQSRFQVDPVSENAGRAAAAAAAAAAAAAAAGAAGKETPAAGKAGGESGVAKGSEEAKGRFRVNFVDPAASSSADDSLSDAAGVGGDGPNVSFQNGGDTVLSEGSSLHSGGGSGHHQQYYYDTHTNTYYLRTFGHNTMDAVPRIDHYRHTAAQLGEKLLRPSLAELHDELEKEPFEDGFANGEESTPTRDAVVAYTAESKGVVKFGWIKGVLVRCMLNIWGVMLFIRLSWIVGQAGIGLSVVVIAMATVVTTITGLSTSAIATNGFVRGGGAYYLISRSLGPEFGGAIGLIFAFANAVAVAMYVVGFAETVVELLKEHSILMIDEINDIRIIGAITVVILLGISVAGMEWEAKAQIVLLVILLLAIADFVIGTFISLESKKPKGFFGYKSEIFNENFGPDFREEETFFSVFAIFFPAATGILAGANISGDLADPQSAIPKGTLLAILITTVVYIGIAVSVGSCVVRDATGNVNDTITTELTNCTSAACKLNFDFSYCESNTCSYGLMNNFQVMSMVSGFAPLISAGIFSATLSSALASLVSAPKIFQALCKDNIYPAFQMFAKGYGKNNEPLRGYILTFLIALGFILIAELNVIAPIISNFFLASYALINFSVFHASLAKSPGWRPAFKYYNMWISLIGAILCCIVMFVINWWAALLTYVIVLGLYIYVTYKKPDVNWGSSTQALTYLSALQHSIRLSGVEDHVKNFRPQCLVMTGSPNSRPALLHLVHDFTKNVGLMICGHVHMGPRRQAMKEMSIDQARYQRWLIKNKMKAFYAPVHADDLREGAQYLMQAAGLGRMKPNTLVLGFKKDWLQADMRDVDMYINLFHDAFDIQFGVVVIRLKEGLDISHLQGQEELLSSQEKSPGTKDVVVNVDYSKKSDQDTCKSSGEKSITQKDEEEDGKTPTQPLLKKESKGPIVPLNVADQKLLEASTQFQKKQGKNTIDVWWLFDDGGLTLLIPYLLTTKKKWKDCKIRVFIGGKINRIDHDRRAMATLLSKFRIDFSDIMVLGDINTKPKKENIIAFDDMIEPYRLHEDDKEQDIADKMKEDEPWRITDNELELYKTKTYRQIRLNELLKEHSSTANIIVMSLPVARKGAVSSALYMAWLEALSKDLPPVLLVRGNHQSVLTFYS

[2] = target: T2, native AQP4 in primary cultures of astroglia (Rattus norvegicus, UniProt P47863); test: Astroglial swelling in primary hippocampal cultures after 50% hypotonic saline; assay type: cell-based; settings: 100 μM extracellular, 15 min preincubation
T2 construct: endogenous in cells; host or cells: rat primary hippocampal astroglial cultures
Description: The role of native AQP4 as a target of block by bumetanide was tested in primary cultures of astroglia (FIG. 4). We compared the swelling responses of rat astroglial cells in primary hippocampal cultures after 15 min preincubation with or without drug. Swelling was induced by rapid perfusion of the culture plate with 50% hypotonic saline, either with or without extracellular bumetanide (100 μM) to match the preincubation condition. Glial cells were identified by morphological comparison with cells positive for a glial-specific marker (GFAP). Time-lapse images were taken at 15 second intervals before and during hypotonic challenge. The response was determined by the change in soma area as a function of time, as visualized by time-lapse digital imaging (Olympus MagnaFire™ camera and image acquisition software) using an inverted phase contrast microscope (Nikon); data were analyzed by Scion Image (NIH) software. Each culture was used for only one swelling trial. […]
FIG. 3 illustrates the protective effect of bumetanide on astroglial swelling in primary hippocampal cultures (14-15 days in vitro) after exposure to 50% hypotonic saline at time zero. Plot (left): Cell area visualized by phase contrast microscopy, standardized to the initial volume quantified by Scion Image (NIH) software. […]

AQP4 = target: T3, AQP4 (Homo sapiens, UniProt P55087); test: Oocyte swelling assay: water permeability (Pf) of AQP4-expressing oocytes by videomicroscopy, block or % stimulation; assay type: cell-based
T3 construct: expressed in transfected cells; host or cells: Xenopus oocytes
From the text: A method for screening compounds for their ability to modulate aquaporin activity based on a water permeability assay in Xenopus oocytes expressing aquaporins which is used to identify, assess, and characterize compounds that either block or stimulate the aquaporin channels including AQP1, AQP4 and AQP9 channels.
Selection rationale and methodology. The ability of compounds, analogs and/or agents to block an aquaporin channel was quantified by videomicroscopic analyses of cross-sectional area of AQP-expressing oocytes as a function of time in a defined osmotic gradient, allowing the calculation of the water permeability factor (Pf), statistical evaluation of significant differences in the rate of water entry, and definition of dose response curves with IC50 values (concentration required for half-maximal block).
This compound evaluation method has been utilized with AQP1,-4,-5, and -9 channels. Observations of channel stimulation were made using the same assay method, however, the results were reported as % stimulation over control at a given concentration. […] TEA is known as a blocker of K^+ channel subtypes and nicotinic acetylcholine receptors. TEA sensitivity of AQP1 was removed by site-directed mutagenesis of tyrosine 186 to phenylalanine (Y186F) in the outer vestibule of the water pore, and confirmed that the inhibitory action of TEA is not due to nonspecific effects on endogenous channels (Brooks et al., 2000).

AQP4-expressing oocytes = target: T4, AQP4-expressing oocytes (Homo sapiens, UniProt P55087); test: Simple screen: time to oocyte bursting in hypotonic saline; assay type: cell-based; settings: 100 μM; AQP4-expressing oocytes preincubated 10-15 min, then 100 mOsm saline
T4 construct: expressed in transfected cells; host or cells: Xenopus oocytes
Description: The composition of the library for initial AQP channel screening included various channel, transporter and receptor blocking compounds based on intuition and from clues regarding clinical side effects that involved water transporting tissues. In a simple screen (FIG. 1), control and AQP4-expressing oocytes were preincubated in isotonic saline (100 mM NaCl; 5 mM MgCl2; 5 mM HEPES, pH 7.3; ˜200 mOsm) containing the test compound for 10-15 min before each experiment; then the time to oocyte bursting (physical explosion) after transfer to 100 mOsm saline was monitored visually. […] Block was evident in the increased time required for bursting in hypotonic saline.

T2 sequence (P47863 whole entry): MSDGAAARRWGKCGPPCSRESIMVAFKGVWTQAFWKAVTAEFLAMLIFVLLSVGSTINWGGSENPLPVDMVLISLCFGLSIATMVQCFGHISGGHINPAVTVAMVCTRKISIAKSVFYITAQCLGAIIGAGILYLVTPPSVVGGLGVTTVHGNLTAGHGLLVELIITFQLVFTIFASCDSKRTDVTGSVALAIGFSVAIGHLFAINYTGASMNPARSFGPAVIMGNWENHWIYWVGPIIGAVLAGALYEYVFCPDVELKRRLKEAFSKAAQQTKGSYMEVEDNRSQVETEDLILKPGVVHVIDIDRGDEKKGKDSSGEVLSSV
T3 sequence (P55087 whole entry, species assumed): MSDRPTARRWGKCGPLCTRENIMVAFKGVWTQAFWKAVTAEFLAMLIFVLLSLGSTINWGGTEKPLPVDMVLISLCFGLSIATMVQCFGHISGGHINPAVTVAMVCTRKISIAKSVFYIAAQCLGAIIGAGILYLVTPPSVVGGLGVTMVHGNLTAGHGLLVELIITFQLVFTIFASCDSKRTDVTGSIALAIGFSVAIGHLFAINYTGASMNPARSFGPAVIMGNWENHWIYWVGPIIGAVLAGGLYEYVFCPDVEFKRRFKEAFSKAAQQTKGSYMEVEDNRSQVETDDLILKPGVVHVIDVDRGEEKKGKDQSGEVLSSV
T4 sequence (P55087 whole entry, species assumed): as above

glial initial swelling (soma area) [2]: reduced
regulatory volume decrease (RVD) [2]: reduced
block of swelling rate in AQP4-expressing oocytes (AQP4; extracellular application): Dose-dependent block
block of swelling in AQP4-expressing oocytes (AQP4; internal injection into the oocyte (intracellular)): improved block at lower concentrations
time to oocyte bursting (AQP4-expressing oocytes): significantly delayed bursting time
SMILES: CCCCNc1cc(C(=O)O)cc(S(N)(=O)=O)c1Oc1ccccc1 [bumetanide]
IC50 [1]: 330 nM
